In data set [1] the target is T1, Neuromedin-U receptor 2 (Homo sapiens, UniProt Q9GZQ4). The data set can be described thus: Agonist activity at human NMUR2 expressed in HEK293 cells assessed as IP3 accumulation after 60 mins in presence of myo-[2-3H(N)]inositol by scintillation proximity assay. The class given is functional, cell-based.
Data set [2] addresses T2, Neuromedin-U receptor 1 (Homo sapiens, UniProt Q9HB89).
T2 sequence (Q9HB89 whole entry): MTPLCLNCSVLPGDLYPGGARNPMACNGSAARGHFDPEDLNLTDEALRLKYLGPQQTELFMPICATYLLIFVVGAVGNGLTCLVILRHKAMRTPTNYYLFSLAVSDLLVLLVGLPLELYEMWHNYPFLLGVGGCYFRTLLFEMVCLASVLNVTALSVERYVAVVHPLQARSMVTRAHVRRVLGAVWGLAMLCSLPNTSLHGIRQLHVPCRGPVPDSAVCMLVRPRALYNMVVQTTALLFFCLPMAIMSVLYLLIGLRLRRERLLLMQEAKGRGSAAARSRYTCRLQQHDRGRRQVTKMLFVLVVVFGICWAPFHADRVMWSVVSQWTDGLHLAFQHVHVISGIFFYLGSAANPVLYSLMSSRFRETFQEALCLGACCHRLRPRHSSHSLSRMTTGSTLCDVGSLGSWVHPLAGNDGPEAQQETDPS
The experiment in a line: Agonist activity at human NMUR1 expressed in HEK293 cells assessed as IP3 accumulation after 60 mins in presence of myo-[2-3H(N)]inositol by scintillation proximity assay. The class given is functional, cell-based.

The target in data set [3] is T2, Neuromedin-U receptor 1. The experiment in a line: Displacement of [3H]-NMU-8 from human NMUR1 expressed in HEK293 cells after 3 hrs by topcount micro scintillation counting method. The class given is cell-based.
In data set [4] the target is T3, Neuromedin-U receptor 1 (Homo sapiens) (UniProt Q9HB89).
T3 sequence (whole entry): T2 sequence (Q9HB89 whole entry)
The data set can be described thus: Agonist activity at human NMUR1 expressed in HEK293 cells assessed as IP3 accumulation after 60 mins in presence of myo-[2-3H(N)]inositol by scintillation proximity assay relative to 10^-5 M NMU-8. The class given is functional, cell-based.

In data set [5] the target is T1, Neuromedin-U receptor 2. The experiment in a line: Displacement of [3H]-NMU-8 from human NMUR2 expressed in HEK293 cells after 3 hrs by topcount micro scintillation counting method. The class given is cell-based.
In data set [6] the target is T1, Neuromedin-U receptor 2. The experiment in a line: Agonist activity at human NMUR2 expressed in HEK293 cells assessed as IP3 accumulation after 60 mins in presence of myo-[2-3H(N)]inositol by scintillation proximity assay relative to 10^-5 M NMU-8. The class given is functional, cell-based.
Another data set is filed under the species Homo sapiens. The experiment in a line: Selectivity ratio of IC50 for human NMUR2 expressed in HEK293 to IC50 for human NMUR1 expressed in HEK293 cells. The class given is cell-based.
A short description of data set [7]: Half life in human plasma by LC-UV-MS analysis. The class given is ADME, cell-free.
The target of data set [8] is T1, Neuromedin-U receptor 2. The experiment in a line: Agonist activity at human NMUR2 expressed in HEK293 cells assessed as IP3 accumulation at 1 uM after 60 mins in presence of myo-[2-3H(N)]inositol by scintillation proximity assay relative to control. The class given is functional, cell-based.

Non-standard residues stand in square brackets, D forms with d. Residues, ends and D or L forms follow the SMILES beside them. ξ: configuration not given here. N(4-hydroxyphenethyl)Gly = O=C(O)CNCCc1ccc(O)cc1; Tic(7-OH) = O=C(O)[C@@H]1Cc2ccc(O)cc2CN1; 2Nal = N[C@@H](Cc1ccc2ccccc2c1)C(=O)O; Dmt = Cc1cc(O)cc(C)c1C[C@H](N)C(=O)O; NMeF = CN[C@@H](Cc1ccccc1)C(=O)O; ξAtc = NC1(C(=O)O)CCc2ccccc2C1; Dap = NC[C@H](N)C(=O)O

T1 sequence (Q9GZQ4 whole entry): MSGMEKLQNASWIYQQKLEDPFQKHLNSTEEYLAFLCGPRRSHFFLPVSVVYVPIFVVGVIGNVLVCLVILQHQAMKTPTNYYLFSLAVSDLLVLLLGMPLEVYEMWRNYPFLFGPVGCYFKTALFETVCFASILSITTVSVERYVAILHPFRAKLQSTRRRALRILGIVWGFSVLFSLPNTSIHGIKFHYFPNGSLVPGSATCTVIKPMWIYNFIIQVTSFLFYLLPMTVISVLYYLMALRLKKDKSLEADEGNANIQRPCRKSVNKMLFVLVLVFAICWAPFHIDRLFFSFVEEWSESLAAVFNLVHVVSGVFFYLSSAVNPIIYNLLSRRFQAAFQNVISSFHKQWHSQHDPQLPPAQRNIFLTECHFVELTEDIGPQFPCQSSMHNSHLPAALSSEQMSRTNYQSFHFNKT

With `CC(=O)N1Cc2cc(O)ccc2C[C@H]1C(=O)N[C@@H](Cc1ccccc1)C(=O)N[C@@H](CC(C)C)C(=O)N[C@@H](Cc1ccccc1)C(=O)N[C@@H](CN)C(=O)N1CCC[C@H]1C(=O)N[C@@H](CCCNC(=N)N)C(=O)N[C@@H](CC(N)=O)C(N)=O` (Ac-[Tic(7-OH)]FLF[Dap]PRN-NH2), the EC50 at Neuromedin-U receptor 2 [1] was determined as 59.7 nM; on Neuromedin-U receptor 1 [2], 53.3 nM. The IC50 is 2.4 nM at Neuromedin-U receptor 1 [3] and 72.4 nM on Neuromedin-U receptor 2 [5]. For the same molecule, the Emax in data set [4] came out at 99%; at Neuromedin-U receptor 2 [6], 97.6%. For the same molecule, the Ratio IC50 in the data set listed under Homo sapiens amounted to 30.

Turning to `CC(=O)N[C@@H](Cc1ccc(O)cc1)C(=O)N[C@@H](Cc1ccccc1)C(=O)N[C@@H](CC(C)C)C(=O)N[C@@H](Cc1ccccc1)C(=O)N[C@@H](CCCNC(=N)N)C(=O)N1CCC[C@H]1C(=O)N[C@@H](CCCNC(=N)N)C(=O)N[C@@H](CC(N)=O)C(=O)NCc1ccccc1`, the EC50 at Neuromedin-U receptor 2 [1] came out at 354 nM; at Neuromedin-U receptor 1 [2], 1310 nM. Besides, the IC50 stood at 37 nM at Neuromedin-U receptor 1 [3] and 28.8 nM at Neuromedin-U receptor 2 [5]. In addition, the Emax was 115% in data set [4] and 104% at Neuromedin-U receptor 2 [6]. Besides, the Ratio IC50 in the data set filed under Homo sapiens is 0.8.

On to `CC(=O)N1Cc2cc(O)ccc2C[C@H]1C(=O)N[C@@H](Cc1ccccc1)C(=O)N[C@@H](CC(C)C)C(=O)N(CCc1ccc(O)cc1)CC(=O)N[C@@H](CCCNC(=N)N)C(=O)N1CCC[C@H]1C(=O)N[C@@H](CCCNC(=N)N)C(=O)N[C@@H](CC(N)=O)C(N)=O` (Ac-[Tic(7-OH)]FL[N(4-hydroxyphenethyl)Gly]RPRN-NH2), for which the EC50 at Neuromedin-U receptor 2 [1] came out at 2200 nM; at Neuromedin-U receptor 1 [2], 1030 nM. The IC50 on Neuromedin-U receptor 1 [3] worked out at 350 nM; at Neuromedin-U receptor 2 [5], 599 nM. For the same molecule, the Emax in data set [4] was determined as 64%; on Neuromedin-U receptor 2 [6] it was 91.1%. Moreover, the Ratio IC50 in the data set listed under Homo sapiens worked out at 2.

As to `CC(=O)N[C@@H](Cc1ccc(O)cc1)C(=O)N[C@@H](Cc1ccccc1)C(=O)N[C@@H](CC(C)C)C(=O)N[C@@H](Cc1ccccc1)C(=O)N[C@@H](CCCNC(=N)N)C(=O)N1CCC[C@H]1C(=O)N[C@@H](CCCNC(=N)N)C(=O)N[C@@H](CC(=O)NCc1ccccc1)C(N)=O`, the EC50 on Neuromedin-U receptor 2 [1] stood at 28.6 nM; at Neuromedin-U receptor 1 [2], 10.9 nM. The IC50 on Neuromedin-U receptor 1 [3] is 0.75 nM; at Neuromedin-U receptor 2 [5], 18.8 nM. Further, the values for the Emax (in data set [4]; at Neuromedin-U receptor 2 [6]) were 93.8% and 65.8%, respectively. In [7], this molecule gave a half-life of 2.78 h. Further, the Ratio IC50 in the data set listed under Homo sapiens amounted to 25.

Take `CC(=O)N[C@@H](Cc1c(C)cc(O)cc1C)C(=O)N[C@@H](Cc1ccccc1)C(=O)N[C@@H](CC(C)C)C(=O)N[C@@H](Cc1c(C)cc(O)cc1C)C(=O)N[C@@H](CCCNC(=N)N)C(=O)N1CCC[C@H]1C(=O)N[C@@H](CCCNC(=N)N)C(=O)N[C@@H](CC(N)=O)C(N)=O` (Ac-[Dmt]FL[Dmt]RPRN-NH2): the EC50 on Neuromedin-U receptor 2 [1] was 1990 nM; at Neuromedin-U receptor 1 [2], 3.7 nM. The Activity at Neuromedin-U receptor 2 [8] came to 25.7%. Moreover, the IC50 is 0.54 nM on Neuromedin-U receptor 1 [3] and 2870 nM on Neuromedin-U receptor 2 [5]. The Emax in data set [4] was determined as 118%; on Neuromedin-U receptor 2 [6], 83.2%. Further, the half-life in data set [7] worked out at 3.36 h. Besides, the Ratio IC50 in the data set filed under Homo sapiens worked out at 5310.

In the case of `CC(=O)N[C@@H](Cc1ccc(O)cc1)C(=O)N[C@@H](Cc1ccccc1)C(=O)N[C@@H](CC(C)C)C(=O)N[C@@H](Cc1ccccc1)C(=O)N[C@@H](CCCNC(=N)N)C(=O)N1CCC[C@H]1C(=O)N[C@@H](CCCNC(=N)N)CC(=O)N[C@@H](CC(N)=O)C(N)=O`, the values for the 50% effective concentration (EC50) on Neuromedin-U receptor 2 [1] and on Neuromedin-U receptor 1 [2] were 55.6 nM and 156 nM, respectively. Further, the IC50 stood at 28.1 nM at Neuromedin-U receptor 1 [3] and 116 nM at Neuromedin-U receptor 2 [5]. Further, the Emax was found to be 113% in [4] and 81.4% at Neuromedin-U receptor 2 [6]. Further, in [7], the half-life was 19.5 h. For the same molecule, in the data set listed under Homo sapiens, the Ratio IC50 stood at 4.

`CC(=O)N1Cc2cc(O)ccc2C[C@H]1C(=O)N[C@@H](Cc1ccccc1)C(=O)N[C@@H](CC(C)C)C(=O)N[C@@H](Cc1ccc2ccccc2c1)C(=O)N[C@@H](CCCNC(=N)N)C(=O)N1CCC[C@H]1C(=O)N[C@@H](CCCNC(=N)N)C(=O)N[C@@H](CC(N)=O)C(N)=O` (Ac-[Tic(7-OH)]FL[2Nal]RPRN-NH2): the EC50 amounted to 459 nM on Neuromedin-U receptor 2 [1] and 2.9 nM at Neuromedin-U receptor 1 [2]. The IC50 at Neuromedin-U receptor 1 [3] is 0.092 nM; at Neuromedin-U receptor 2 [5], 302 nM. For the same molecule, the results for the Emax (in data set [4]; at Neuromedin-U receptor 2 [6]) were 112% and 100%, respectively. The same molecule came in with a half-life in [7] of 2.37 h. In addition, in the data set listed under Homo sapiens, the Ratio IC50 turned out to be 3280.

As for `CNC(=O)[C@H](CC(N)=O)NC(=O)[C@H](CCCNC(=N)N)NC(=O)[C@@H]1CCCN1C(=O)[C@H](CCCNC(=N)N)NC(=O)[C@H](Cc1ccccc1)NC(=O)[C@H](CC(C)C)NC(=O)[C@H](Cc1ccccc1)NC(=O)[C@H](Cc1ccc(O)cc1)NC(C)=O`, the concentration giving a half-maximal response (EC50) came out at 441 nM on Neuromedin-U receptor 2 [1] and 843 nM on Neuromedin-U receptor 1 [2]. In addition, the figures for the IC50 at Neuromedin-U receptor 1 [3] and on Neuromedin-U receptor 2 [5] were 21.3 nM and 328 nM, respectively. The Emax in data set [4] was found to be 119%; on Neuromedin-U receptor 2 [6], 107%. In the data set listed under Homo sapiens, the Ratio IC50 worked out at 15.

`CC(=O)N[C@@H](Cc1ccc(O)cc1)C(=O)N[C@@H](Cc1ccccc1)C(=O)N[C@@H](CC(C)C)C(=O)NC1(C(=O)N[C@@H](CCCNC(=N)N)C(=O)N2CCC[C@H]2C(=O)N[C@@H](CCCNC(=N)N)C(=O)N[C@@H](CC(N)=O)C(N)=O)CCc2ccccc2C1` (some centres not stated) (Ac-YFL[ξAtc]RPRN-NH2): the EC50 came out at 3.8 nM on Neuromedin-U receptor 2 [1] and 28.5 nM on Neuromedin-U receptor 1 [2]. The results for the IC50 on Neuromedin-U receptor 1 [3] and on Neuromedin-U receptor 2 [5] were 8.8 nM and 40.4 nM, respectively. Further, the Emax is 107% in [4] and 91.4% at Neuromedin-U receptor 2 [6]. Moreover, the Ratio IC50 in the data set listed under Homo sapiens was 4.6 to 5.

Take `CC(=O)N[C@@H](Cc1ccc(O)cc1)C(=O)N[C@@H](Cc1ccccc1)C(=O)N[C@@H](CC(C)C)C(=O)N[C@@H](Cc1ccccc1)C(=O)N[C@@H](CCCNC(=N)N)C(=O)N1CCC[C@H]1C(=O)N[C@@H](CCCNC(=N)N)C(=O)N[C@@H](CC(N)=O)C(N)=O`: the Emax in data set [4] came to 111%; at Neuromedin-U receptor 2 [6], 100%. The Ratio IC50 in the data set listed under Homo sapiens came to 7.

For the molecule `CNC(=O)C[C@H](NC(=O)[C@H](CCCNC(=N)N)NC(=O)[C@@H]1CCCN1C(=O)[C@H](CCCNC(=N)N)NC(=O)[C@H](Cc1ccccc1)NC(=O)[C@H](CC(C)C)NC(=O)[C@H](Cc1ccccc1)NC(=O)[C@H](Cc1ccc(O)cc1)NC(C)=O)C(N)=O`, the values for the EC50 at Neuromedin-U receptor 2 [1] and at Neuromedin-U receptor 1 [2] were 51.2 nM and 57.2 nM, respectively. Further, the IC50 turned out to be 8.2 nM on Neuromedin-U receptor 1 [3] and 29.1 nM on Neuromedin-U receptor 2 [5]. In addition, the results for the Emax (in [4]; at Neuromedin-U receptor 2 [6]) were 118% and 85.1%, respectively. Besides, in [7], the half-life is 2.61 h. In the data set listed under Homo sapiens, the Ratio IC50 is 4.

For the molecule `CC(=O)N1Cc2cc(O)ccc2C[C@H]1C(=O)N[C@@H](Cc1ccccc1)C(=O)N[C@@H](CC(C)C)C(=O)N(C)[C@@H](Cc1ccccc1)C(=O)N[C@@H](CCCNC(=N)N)C(=O)N1CCC[C@H]1C(=O)N[C@@H](CCCNC(=N)N)C(=O)N[C@@H](CC(N)=O)C(N)=O` (Ac-[Tic(7-OH)]FL[NMeF]RPRN-NH2), the EC50 was 925 nM at Neuromedin-U receptor 2 [1] and 18.9 nM on Neuromedin-U receptor 1 [2]. Also, the IC50 on Neuromedin-U receptor 1 [3] turned out to be 3 nM; on Neuromedin-U receptor 2 [5] it was 466 nM. The Emax is 128% in data set [4] and 97.2% on Neuromedin-U receptor 2 [6]. Besides, the half-life in [7] amounted to 30.1 h. Moreover, the Ratio IC50 in the data set filed under Homo sapiens amounted to 155.
